{"source": "patent US12677847B2", "about": "“Methods and formulations for reducing bovine emissions” (Elanco US Inc., priority 2015, dated 2026)", "key": {"cattle [1]": {"system": "cattle", "experiment": "Reduction of ammonia gas emissions from cattle fed lubabegron for 91 days in cattle pen enclosures", "assay_type": "in vivo", "from_the_text": "Prepare lubabegron (L) as 4.5 g/lb of Type A Medicated Article. In a facility having at least eight cattle pen enclosures (CPEs), test two cycles of cattle, each cycle representing all dose (0, 1.25, 5, and 20 g/ton) and gender (steer and heifer) combinations. For the purpose of this example, a cycle refers to a group of 112 animals housed concurrently. Within each cycle, there are 2 cohorts of animals (56 animals per cohort). A cohort refers to a group of same gender animals representing each of the 4 doses. Up to 4 cycles are used to provide a total of 4 cohorts per gender.\nUpon receipt of the cattle, allocate the cattle to CPEs to acclimate for 7 days. After the acclimation phase, for 91 days orally treat via feed one fourth of the cattle allocated to CPEs L 0 g/ton/day; one fourth 1.25 g/ton/day; 5 g/ton/day; and 20 g/ton/day (100% dry matter basis). Provide feed and water ad libitum. On day 91, collect body weight and load cattle for transport to the slaughter facility. On day 92, slaughter the cattle and evaluate the carcass. During the study, monitor and collect ammonia gas emissions data. Measure the ammonia emissions over the treatment period and normalize by body weight (BW) for the period (Days 0-7, 0-14, 0-28, 0-56, and 0-91) and hot carcass weight (HCW) (Days 0-91) (g of gas/animal; g of gas/lb of live BW; g of gas/lb of HCW). Using the process described above, the following results are achieved."}, "cattle [2]": {"system": "cattle", "experiment": "Reduction of carbon dioxide gas emissions from cattle fed lubabegron for 14 days in individual chambers", "assay_type": "in vivo", "from_the_text": "Prepare lubabegron (L) as 4.5 g/lb of Type A Medicated Article. In an appropriate facility having cattle chambers or rooms for individual animals (chambers), test ten cycles of twelve cattle each, each cycle representing all dose (0, 1.25, 5, and 20 g/ton) with a mixture of genders (steer and heifer).\nUpon receipt of the cattle, allocate the cattle to chambers to acclimate for 7 days. After the acclimation phase, for 14 days orally treat via feed one fourth of the cattle allocated to chambers L 0 g/ton/day; one fourth 1.25 g/ton/day; 5 g/ton/day; and 20 g/ton/day (100% dry matter basis). Provide feed and water ad libitum. On day 14, collect body weight and load cattle for transport to the slaughter facility. On day 15, slaughter the cattle and evaluate the carcass. During the study, monitor and collect carbon dioxide gas emissions data. […] Using the process described above, the following results are achieved."}}, "data": [{"smiles": "CC(C)(Cc1ccc(Oc2ncccc2C#N)cc1)NC[C@H](O)COc1ccccc1-c1cccs1", "note": "[lubabegron]", "values": [{"measurement": "Reduction, as compared to control, g of NH3 gas/animal", "setting": "cattle [1]; 1.25 g/ton in feed, Day 0-7", "result": "5% (5%)"}, {"measurement": "Reduction, as compared to control, g of NH3 gas/lb of live BW", "setting": "cattle [1]; 1.25 g/ton in feed, Day 0-7", "result": "5% (5%)"}, {"measurement": "Reduction, as compared to control, g of NH3 gas/animal", "setting": "cattle [1]; 1.25 g/ton in feed, Day 0-14", "result": 12, "unit": "%"}, {"measurement": "Reduction, as compared to control, g of NH3 gas/lb of live BW", "setting": "cattle [1]; 1.25 g/ton in feed, Day 0-14", "result": 14, "unit": "%"}, {"measurement": "Reduction, as compared to control, g of NH3 gas/animal", "setting": "cattle [1]; 1.25 g/ton in feed, Day 0-28", "result": 15, "unit": "%"}, {"measurement": "Reduction, as compared to control, g of NH3 gas/lb of live BW", "setting": "cattle [1]; 1.25 g/ton in feed, Day 0-28", "result": 16, "unit": "%"}, {"measurement": "Reduction, as compared to control, g of NH3 gas/animal", "setting": "cattle [1]; 1.25 g/ton in feed, Day 0-56", "result": 11, "unit": "%"}, {"measurement": "Reduction, as compared to control, g of NH3 gas/lb of live BW", "setting": "cattle [1]; 1.25 g/ton in feed, Day 0-56", "result": 13, "unit": "%"}, {"measurement": "Reduction, as compared to control, g of NH3 gas/animal", "setting": "cattle [1]; 1.25 g/ton in feed, Day 0-91", "result": 9, "unit": "%"}, {"measurement": "Reduction, as compared to control, g of NH3 gas/lb of HCW", "setting": "cattle [1]; 1.25 g/ton in feed, Day 0-91", "result": 13, "unit": "%"}, {"measurement": "Reduction, as compared to control, g of NH3 gas/lb of live BW", "setting": "cattle [1]; 1.25 g/ton in feed, Day 0-91", "result": 11, "unit": "%"}, {"measurement": "Reduction, as compared to control, g of NH3 gas/animal", "setting": "cattle [1]; 5 g/ton in feed, Day 0-7", "result": 7, "unit": "%"}, {"measurement": "Reduction, as compared to control, g of NH3 gas/lb of live BW", "setting": "cattle [1]; 5 g/ton in feed, Day 0-7", "result": 8, "unit": "%"}, {"measurement": "Reduction, as compared to control, g of NH3 gas/animal", "setting": "cattle [1]; 5 g/ton in feed, Day 0-14", "result": 16, "unit": "%"}, {"measurement": "Reduction, as compared to control, g of NH3 gas/lb of live BW", "setting": "cattle [1]; 5 g/ton in feed, Day 0-14", "result": 17, "unit": "%"}, {"measurement": "Reduction, as compared to control, g of NH3 gas/animal", "setting": "cattle [1]; 5 g/ton in feed, Day 0-28", "result": 20, "unit": "%"}, {"measurement": "Reduction, as compared to control, g of NH3 gas/lb of live BW", "setting": "cattle [1]; 5 g/ton in feed, Day 0-28", "result": 21, "unit": "%"}, {"measurement": "Reduction, as compared to control, g of NH3 gas/animal", "setting": "cattle [1]; 5 g/ton in feed, Day 0-56", "result": 16, "unit": "%"}, {"measurement": "Reduction, as compared to control, g of NH3 gas/lb of live BW", "setting": "cattle [1]; 5 g/ton in feed, Day 0-56", "result": 18, "unit": "%"}, {"measurement": "Reduction, as compared to control, g of NH3 gas/animal", "setting": "cattle [1]; 5 g/ton in feed, Day 0-91", "result": 12, "unit": "%"}, {"measurement": "Reduction, as compared to control, g of NH3 gas/lb of HCW", "setting": "cattle [1]; 5 g/ton in feed, Day 0-91", "result": 16, "unit": "%"}, {"measurement": "Reduction, as compared to control, g of NH3 gas/lb of live BW", "setting": "cattle [1]; 5 g/ton in feed, Day 0-91", "result": 14, "unit": "%"}, {"measurement": "Reduction, as compared to control, g of NH3 gas/animal", "setting": "cattle [1]; 20 g/ton in feed, Day 0-7", "result": 21, "unit": "%"}, {"measurement": "Reduction, as compared to control, g of NH3 gas/lb of live BW", "setting": "cattle [1]; 20 g/ton in feed, Day 0-7", "result": 22, "unit": "%"}, {"measurement": "Reduction, as compared to control, g of NH3 gas/animal", "setting": "cattle [1]; 20 g/ton in feed, Day 0-14", "result": "27% (27%)"}, {"measurement": "Reduction, as compared to control, g of NH3 gas/lb of live BW", "setting": "cattle [1]; 20 g/ton in feed, Day 0-14", "result": "27% (27%)"}, {"measurement": "Reduction, as compared to control, g of NH3 gas/animal", "setting": "cattle [1]; 20 g/ton in feed, Day 0-28", "result": 25, "unit": "%"}, {"measurement": "Reduction, as compared to control, g of NH3 gas/lb of live BW", "setting": "cattle [1]; 20 g/ton in feed, Day 0-28", "result": 26, "unit": "%"}, {"measurement": "Reduction, as compared to control, g of NH3 gas/animal", "setting": "cattle [1]; 20 g/ton in feed, Day 0-56", "result": "19% (19%)"}, {"measurement": "Reduction, as compared to control, g of NH3 gas/lb of live BW", "setting": "cattle [1]; 20 g/ton in feed, Day 0-56", "result": "19% (19%)"}, {"measurement": "Reduction, as compared to control, g of NH3 gas/animal", "setting": "cattle [1]; 20 g/ton in feed, Day 0-91", "result": 13, "unit": "%"}, {"measurement": "Reduction, as compared to control, g of NH3 gas/lb of HCW", "setting": "cattle [1]; 20 g/ton in feed, Day 0-91", "result": 17, "unit": "%"}, {"measurement": "Reduction, as compared to control, g of NH3 gas/lb of live BW", "setting": "cattle [1]; 20 g/ton in feed, Day 0-91", "result": 15, "unit": "%"}, {"measurement": "Reduction, as compared to control, g of CO2 gas/animal", "setting": "cattle [2]; 1.25 g/ton in feed, Day 0-7", "result": "(0.2%)"}, {"measurement": "Reduction, as compared to control, g of CO2 gas/lb of live BW", "setting": "cattle [2]; 1.25 g/ton in feed, Day 0-7", "result": 0, "unit": "%"}, {"measurement": "Reduction, as compared to control, g of CO2 gas/animal", "setting": "cattle [2]; 1.25 g/ton in feed, Day 0-14", "result": "(3%)"}, {"measurement": "Reduction, as compared to control, g of CO2 gas/lb of HCW", "setting": "cattle [2]; 1.25 g/ton in feed, Day 0-14", "result": 4, "unit": "%"}, {"measurement": "Reduction, as compared to control, g of CO2 gas/lb of live BW", "setting": "cattle [2]; 1.25 g/ton in feed, Day 0-14", "result": 2, "unit": "%"}, {"measurement": "Reduction, as compared to control, g of CO2 gas/animal", "setting": "cattle [2]; 1.25 g/ton in feed, Day 7-14", "result": "(5%)"}, {"measurement": "Reduction, as compared to control, g of CO2 gas/lb of HCW", "setting": "cattle [2]; 1.25 g/ton in feed, Day 7-14", "result": 6, "unit": "%"}, {"measurement": "Reduction, as compared to control, g of CO2 gas/lb of live BW", "setting": "cattle [2]; 1.25 g/ton in feed, Day 7-14", "result": 5, "unit": "%"}, {"measurement": "Reduction, as compared to control, g of CO2 gas/animal", "setting": "cattle [2]; 5 g/ton in feed, Day 0-7", "result": "(4%)"}, {"measurement": "Reduction, as compared to control, g of CO2 gas/lb of live BW", "setting": "cattle [2]; 5 g/ton in feed, Day 0-7", "result": 3, "unit": "%"}, {"measurement": "Reduction, as compared to control, g of CO2 gas/animal", "setting": "cattle [2]; 5 g/ton in feed, Day 0-14", "result": "(7%)"}, {"measurement": "Reduction, as compared to control, g of CO2 gas/lb of HCW", "setting": "cattle [2]; 5 g/ton in feed, Day 0-14", "result": 7, "unit": "%"}, {"measurement": "Reduction, as compared to control, g of CO2 gas/lb of live BW", "setting": "cattle [2]; 5 g/ton in feed, Day 0-14", "result": 6, "unit": "%"}, {"measurement": "Reduction, as compared to control, g of CO2 gas/animal", "setting": "cattle [2]; 5 g/ton in feed, Day 7-14", "result": "(10%)"}, {"measurement": "Reduction, as compared to control, g of CO2 gas/lb of HCW", "setting": "cattle [2]; 5 g/ton in feed, Day 7-14", "result": 10, "unit": "%"}, {"measurement": "Reduction, as compared to control, g of CO2 gas/lb of live BW", "setting": "cattle [2]; 5 g/ton in feed, Day 7-14", "result": 9, "unit": "%"}, {"measurement": "Reduction, as compared to control, g of CO2 gas/animal", "setting": "cattle [2]; 20 g/ton in feed, Day 0-7", "result": "(4%)"}, {"measurement": "Reduction, as compared to control, g of CO2 gas/lb of live BW", "setting": "cattle [2]; 20 g/ton in feed, Day 0-7", "result": 4, "unit": "%"}, {"measurement": "Reduction, as compared to control, g of CO2 gas/animal", "setting": "cattle [2]; 20 g/ton in feed, Day 0-14", "result": "(7%)"}, {"measurement": "Reduction, as compared to control, g of CO2 gas/lb of HCW", "setting": "cattle [2]; 20 g/ton in feed, Day 0-14", "result": 7, "unit": "%"}, {"measurement": "Reduction, as compared to control, g of CO2 gas/lb of live BW", "setting": "cattle [2]; 20 g/ton in feed, Day 0-14", "result": 6, "unit": "%"}, {"measurement": "Reduction, as compared to control, g of CO2 gas/animal", "setting": "cattle [2]; 20 g/ton in feed, Day 7-14", "result": "(9%)"}, {"measurement": "Reduction, as compared to control, g of CO2 gas/lb of HCW", "setting": "cattle [2]; 20 g/ton in feed, Day 7-14", "result": 10, "unit": "%"}, {"measurement": "Reduction, as compared to control, g of CO2 gas/lb of live BW", "setting": "cattle [2]; 20 g/ton in feed, Day 7-14", "result": 9, "unit": "%"}]}]}
